According to patent publication US20260256779A1, “PYRIDAZIN-3-CARBOXAMIDE COMPOUND AS TYK2 INHIBITOR” (Guangzhou Fermion Technology Co., Ltd., priority 2022, published 2026):

Assays:
[1] = target: T1, TYK2 JH2 pseudokinase (Homo sapiens, UniProt P29597); assay: TYK2 JH2 in vitro enzyme binding assay (TR-FRET); details: 60 min at room temperature
T1 construct: 5 μL of 3×TYK2 JH2 kinase (Bioduro); purchased Bioduro
Method: Purpose: The purpose of this test example was to use a fluorescence resonance energy transfer (TR-FRET) method to test the binding effect of the compound on a TYK2 JH2 pseudokinase, and then evaluate the affinity of the compound for TYK2 JH2.
DMSO-dissolved compounds were used to prepare 10 mM stock solutions, then 200× compounds having different gradient concentrations were prepared in a compound dilution plate, and transferred to an Echo plate. 75 nL of the compounds were transferred from the Echo plate to a 384-well assay plate using an Echo instrument, and 5 μL of 3×TYK2 JH2 kinase (Bioduro), 5 μL of 3× Tb antibody (Cisbio) and 5 μL of 3×TRACER (Bioduro) were added to the 384-well assay plate, centrifuged for 30 seconds, and incubated at room temperature for 60 minutes. A 495 nm/520 nm fluorescence signal ratio was read by an Envision microplate reader (PerkinElmer), and data was analyzed using XL-Fit software to calculate the IC50 of the compound.

[2] = test system: IL-2-induced CD3+ pSTAT5 (JAK1/3) in hPBMC; assay: IL-2-induced STAT5 phosphorylation (JAK1/3) in CD3+ cell subpopulations in human PBMC, flow cytometry; assay type: cell-based; details: CD3+ cells, IL-2 stimulation
Method: Purpose: The purpose of this test example was to test the inhibitory effect of the compound on IL-2-induced STAT5 phosphorylation using protein phosphorylation flow cytometric analysis technology.
Human PBMC cells were pre-incubated with the compounds, STAT5 was induced to phosphorylate under appropriate stimulation conditions, and corresponding cell subpopulations and targets were stained. Flow cytometry was used to read cell data and analyze the strength of phosphorylated antibody signals under different compound concentrations. PBMCs were resuspended and dispensed into a 96-well plate, 62.5 μL/well. 3.5 μL of 20× compound working solutions were added and incubated at 37° C. for 30 minutes. 5 μL of PE Mouse Anti-Human CD3 (BD) was added and incubated at 37° C. in the dark for 30 minutes. 4 μL of 20× IL-2 (R&D) was added to each well and incubated at 37° C. in the dark for 20 minutes. All cells in the 96-well plate were transferred to a deep-well plate, 400 μL of a fixation working solution (Biolegend) was added to each well, and incubated at room temperature in the dark for 20 minutes. The cells were washed twice with PBS, and 400 μL of Perm Buffer III (BD) was added and incubated at 4° C. in the dark for 40 minutes. The cells were washed twice with PBS, and 100 μL of a STAT5 pY694 antibody working solution (BD) was added and incubated at room temperature for 40 minutes. After washing once with PBS, the cells were resuspended in 200 μL of a staining buffer and transferred to a sample plate. The antibody fluorescence intensity was analyzed using FlowJo software, and the IC50 of the compound was calculated using XL-Fit software.

[3] = Pharmacokinetic evaluation by intravenous injection or oral gavage in mice; assay type: in vivo; details: ICR mice; for AUC(0-t) / Cmax / Tmax / half-life / clearance / Vd: mouse, plasma; for Vd: read-out: Vz
Method: The inventors evaluated the pharmacokinetic properties of the compound of the present invention in mice.
The compound of the present invention was administered to the test animals in the form of 5% DMA+5% Solutol+90% saline or 5% ethanol+5% TPGS+90% PEG300 solvent. The animals were fasted for 12 hours before administration and had free access to water. For the intravenous administration group, the dose was 1 mg/kg. The drug was administered by intragastric administration at a dose of 10 mg/kg. After the drug administration, blood was intravenously drawn from the animals at the following time points (blood volume was approximately 0.3 mL): 0.083, 0.25, 0.5, 1.0, 2.0, 4.0, 8.0 and 24 h. EDTA-K2 was pre-added to blood collection tubes as an anticoagulant, and the blood samples were centrifuged at 6800 g for 6 min to collect plasma, which was then stored at −80° C.
Sample preparation for LC-MS/MS assay: 15 μL of plasma samples was used for protein precipitation with 300 μL of methanol containing 100 ng/mL IS (IS was tolbutamide). The mixture was vortexed for 1 min and then centrifuged at 18000 g for 10 min. 300 μL of the supernatant was transferred to a 96-well plate. 2 μL of the supernatant was subjected to LC-MS/MS analysis.

[4] = intragastric administration, 10 mg/kg
[5] = po, intragastric administration, 10 mg/kg
[6] = intravenous administration, 1 mg/kg

T1 sequence (P29597 589-875 limits assumed): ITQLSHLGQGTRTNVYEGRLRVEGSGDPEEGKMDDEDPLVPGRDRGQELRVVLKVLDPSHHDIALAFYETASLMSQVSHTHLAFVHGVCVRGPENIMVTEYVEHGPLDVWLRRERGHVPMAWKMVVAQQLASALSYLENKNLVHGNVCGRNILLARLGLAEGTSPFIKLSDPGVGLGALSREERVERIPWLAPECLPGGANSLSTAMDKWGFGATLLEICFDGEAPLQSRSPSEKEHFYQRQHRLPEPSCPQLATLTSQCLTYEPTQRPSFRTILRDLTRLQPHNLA

## CONC(=O)c1nnc(NC(=O)C2CC2)cc1Nc1cccc(-c2ncn(C)n2)c1OC [Compound 1, 6-(Cyclopropylcarboxamido)-N-methoxy-4-((2-methoxy-3-(1-methyl-1H-1,2,4-triazol-3-yl)phenyl)amino)pyridazine-3-carboxamide]
[1]
  IC50: 0.17 nM

## CONC(=O)c1nnc(Nc2cccc(C#N)n2)cc1Nc1cccc(-c2ncn(C)n2)c1OC [Compound 2, 6-((6-cyanopyridin-2-yl)amino)-N-methoxy-4-((2-methoxy-3-(1-methyl-1H-1,2,4-triazol-3-yl)phenyl)amino)pyridazine-3-carboxamide]
[1]
  IC50: 0.16 nM

## CCONC(=O)c1nnc(NC(=O)C2CC2)cc1Nc1cccc(-c2ncn(C)n2)c1OC [Compound 3, 6-(Cyclopropylcarboxamido)-N-ethoxy-4-((2-methoxy-3-(1-methyl-1H-1,2,4-triazol-3-yl)phenyl)amino)pyridazine-3-carboxamide]
[1]
  IC50: 0.13 nM

## CCONC(=O)c1nnc(NC(=O)C2CC2)cc1Nc1cc(F)cc(-c2ncn(C)n2)c1OC [Compound 4, 6-(Cyclopropylcarboxamido)-N-ethoxy-4-((5-fluoro-2-methoxy-3-(1-methyl-1H-1,2,4-triazol-3-yl)phenyl)amino)pyridazine-3-carboxamide]
[1]
  IC50: 0.2 nM

## [2H]C([2H])([2H])n1cnc(-c2cccc(Nc3cc(NC(=O)C4CC4)nnc3C(=O)NOCC)c2OC)n1 [Compound 5, 6-(Cyclopropylcarboxamido)-N-ethoxy-4-((2-methoxy-3-(1-(methyl-d3)-1H-1,2,4-triazol-3-yl)phenyl)amino)pyridazine-3-carboxamide]
[1]
  IC50: 0.26 nM

## [2H]C([2H])([2H])n1cnc(-c2cc(F)cc(Nc3cc(NC(=O)C4CC4)nnc3C(=O)NOCC)c2OC)n1 [Compound 6, 6-(Cyclopropylcarboxamido)-N-ethoxy-4-((5-fluoro-2-methoxy-3-(1-(methyl-d3)-1H-1,2,4-triazol-3-yl)phenyl)amino)pyridazine-3-carboxamide]
[1]
  IC50: 0.3 nM

## CCONC(=O)c1nnc(NC(=O)C2CC2)cc1Nc1cccc(-c2ncn(C3CC3)n2)c1OC [Compound 7, 6-(Cyclopropylcarboxamido)-4-((3-(1-cyclopropyl-1H-1,2,4-triazol-3-yl)-2-methoxyphenyl)amino)-N-ethoxypyridazine-3-carboxamide]
[1]
  IC50: 0.17 nM
[2]
  IC50: > 30000 nM
[3]; [4]
  F: 29.09%
[3]; [5]
  AUC(0-t): 7850 ng·h/mL
  Cmax: 3460 ng/mL
  Tmax: 0.83 h
  half-life: 3.75 h
[3]; [6]
  AUC(0-t): 2700 ng·h/mL
  Cmax: 3620 ng/mL
  Tmax: 0.08 h
  clearance: 6.13 mL/min/kg
  half-life: 1.51 h
  Vd: 0.81 L/kg

## CCONC(=O)c1nnc(NC(=O)C2CC2)cc1Nc1cc(F)cc(-c2ncn(C3CC3)n2)c1OC [Compound 8, 6-(Cyclopropylcarboxamido)-4-((3-(1-cyclopropyl-1H-1,2,4-triazol-3-yl)-5-fluoro-2-methoxyphenyl)amino)-N-ethoxypyridazine-3-carboxamide]
[1]
  IC50: 0.33 nM

## [2H]C([2H])([2H])Oc1c(Nc2cc(NC(=O)C3CC3)nnc2C(=O)NOCC)cccc1-c1ncn(C2CC2)n1 [Compound 9, 6-(Cyclopropylcarboxamido)-4-((3-(1-cyclopropyl-1H-1,2,4-triazol-3-yl)-2-(methoxy-d3)phenyl)amino)-N-ethoxypyridazine-3-carboxamide]
[1]
  IC50: 0.22 nM
[2]
  IC50: > 30000 nM
[3]; [4]
  F: 72.48%
[3]; [5]
  AUC(0-t): 20100 ng·h/mL
  Cmax: 9220 ng/mL
  Tmax: 0.67 h
  half-life: 4.64 h
[3]; [6]
  AUC(0-t): 2780 ng·h/mL
  Cmax: 3730 ng/mL
  Tmax: 0.08 h
  clearance: 6.09 mL/min/kg
  half-life: 4.3 h
  Vd: 1.8 L/kg

## [2H]C([2H])([2H])ONC(=O)c1nnc(NC(=O)C2CC2)cc1Nc1cccc(-c2ncn(C)n2)c1OC [Compound 14, 6-(Cyclopropylcarboxamido)-N-(methoxy-d3)-4-((2-methoxy-3-(1-methyl-1H-1,2,4-triazol-3-yl)phenyl)amino)pyridazine-3-carboxamide]
[1]
  IC50: 0.27 nM

## [2H]C([2H])([2H])C([2H])([2H])ONC(=O)c1nnc(NC(=O)C2CC2)cc1Nc1cccc(-c2ncn(C)n2)c1OC [Compound 15, 6-(Cyclopropylcarboxamido)-N-(ethoxy-d5)-4-((2-methoxy-3-(1-methyl-1H-1,2,4-triazol-3-yl)phenyl)amino)pyridazine-3-carboxamide]
[1]
  IC50: 0.14 nM

## [2H]C([2H])([2H])ONC(=O)c1nnc(NC(=O)C2CC2)cc1Nc1cccc(-c2ncn(C3CC3)n2)c1OC [Compound 16, 6-(Cyclopropanamido)-4-((3-(1-cyclopropyl-1H-1,2,4-triazol-3-yl)-2-methoxyphenyl)amino)-N-(methoxy-d3)pyridazine-3-carboxamide]
[1]
  IC50: 0.29 nM

## [2H]C([2H])([2H])C([2H])([2H])ONC(=O)c1nnc(NC(=O)C2CC2)cc1Nc1cccc(-c2ncn(C3CC3)n2)c1OC [Compound 17, 6-(Cyclopropylcarboxamido)-4-((3-(1-cyclopropyl-1H-1,2,4-triazol-3-yl)-2-methoxyphenyl)amino)-N-(ethoxy-d5)pyridazine-3-carboxamide]
[1]
  IC50: 0.19 nM
[2]
  IC50: > 30000 nM
[3]; [4]
  F: 94.13%
[3]; [5]
  AUC(0-t): 17500 ng·h/mL
  Cmax: 5640 ng/mL
  Tmax: 0.67 h
  half-life: 5.03 h
[3]; [6]
  AUC(0-t): 1860 ng·h/mL
  Cmax: 3400 ng/mL
  Tmax: 0.08 h
  clearance: 9.13 mL/min/kg
  half-life: 3.61 h
  Vd: 2.77 L/kg

## BMS-986165 [reference compound]
[2]
  IC50: 409 nM
